A short description of this series: Fraction unbound in placental perfusion buffer by Rapid Equilibrium Dialysis. It counts as in vitro ADME. To be noted: placenta perfusion buffer with albumin; RED 4 hours at 37 °C. The protocol: Free drug concentrations in perfusion buffer were determined using Rapid Equilibrium Dialysis (RED) single use plates (ThermoScientific, Rockford, USA) according to the manufacturer’s instructions. In short, placental perfusion buffer samples from multiple timepoints were loaded on one side of the RED and clean placenta perfusion buffer without albumin was added to the other side. This was incubated on a ThermoMixer C (Eppendorf Nederland B.V., Nijmegen, The Netherlands) at 250 rpm for 4 hours at 37 °C. The average from all measurements was taken to determine the average fraction unbound for each ex vivo placenta perfusion experiment.
In general terms: In equilibrium dialysis only unbound substance equilibrates across the membrane.

In the case of `Cc1cc(=O)n(-c2ccccc2)n1C` [Antipyrine, antipyrine], the Fraction unbound came out at 95 ± 2%.

The values are drawn from paper PMC13453992, “Comparison of ex vivo placenta perfusion and in vitro BeWo b30 cell models for assessing transfer of developmental and reproductive toxic compounds” (Archives of Toxicology, 2026).
